Assay results as given in paper PMC5094572, “A β‐mannan utilization locus in Bacteroides ovatus involves a GH36 α‐galactosidase active on galactomannans” (Febs Letters, 2016).

Tested on: T1, BoGal36A
T1 construct: gene Bacova_02091; predicted signal peptide removed, C-terminal His6 tag kept, pET28b+, E. coli BL21(DE3); tetramer (SEC 290 kDa)
Assay: continuous assay, p-nitrophenol release at […] nm, Michaelis-Menten fit
Assay type: biochemical, Bacteroides ovatus
Conditions: pH 6.0, 37 °C; 50 mM sodium citrate; 0.1-5 mM substrate

O=[N+]([O-])c1ccc(O[C@H]2O[C@H](CO)[C@H](O)[C@H](O)[C@H]2O)cc1 [pNP-α-gal]
Km: 132 ± 20 µM
